Results published in patent US6414036B1, “Composition for treatment of infections of humans and animals” (Van Beek Global/Ninkov LLC, priority 1999, dated 2002).

Tested on: microorganism culture
Assay: Comparative testing: time to death of the culture after contact
Assay type: cell-based
Experimental: Isopropyl-o-cresol (95% purity) was obtained as described in Examples I and 2. A 50% solution of isopropyl-o-cresol was prepared by combining 50 grams of isopropyl-o-cresol with […] citric and propionic acid.
An antimicrobial compound containing isopropyl-o-cresol was prepared as described in Examples 3 and 4.
Each compound was administered to a culture of […]. Cell death was observed by monitoring whether or not the cells multiplied.
For example, when the microorganism culture was contacted with isopropyl-o-cresol alone the cells died within 6-8 hours after contact. When the microorganism culture was contacted with isopropyl-o-cresol combined with an organic acid to form a solution (without chemical modification of either species), the microorganisms died within 3-4 hours after exposure. When the microorganism culture was contacted with an antimicrobial compound containing isopropyl-o-cresol reacted with propionic and citric acids (50:50), the organisms died within 5-10 minutes after being contacted with the antimicrobial compound.

SMILES | time within which the organisms died after contact | time within which the cells died after contact
CC(C)c1cc(CC(=O)O)cc(O)c1OC(=O)C(O)(CC(=O)O)CC(=O)O [3-{[4-(carboxymethyl)-2-hydroxy-6-isopropylphenoxy]carbonyl}-3-hydroxypentanedioic acid] | 5 to 10 min | 
Cc1ccc(C(C)C)cc1O [isopropyl-o-cresol, 5-isopropyl-2-methylphenol] |  | 6 to 8 h
